Values quoted from earlier work, collected in patent US8956592B2, “Oral care compositions” (Colgate-Palmolive Company, priority 2010, dated 2015).

Test system: S. mutans, F. nucleatum, V. parvula, A. naslundii, P. gingivitis
Details: in vitro tests

SMILES	bactericidal properties against representative oral bacteria
C=CCc1ccc(O)c(-c2ccc(O)c(CC=C)c2)c1 [honokiol]	bactericidal properties
C=CCc1ccc(O)c(-c2cc(CC=C)ccc2O)c1 [magnolol]	bactericidal properties
CCCc1ccc(O)c(-c2ccc(O)c(CCC)c2)c1 [tetrahydrohonokiol, 3′,5-dipropylbiphenyl-2,4′-diol]	bactericidal properties
CCCc1ccc(O)c(-c2cc(CCC)ccc2O)c1 [tetrahydromagnolol, 5,5′-dipropylbiphenyl-2,2′-diol]	bactericidal properties
